Data as given in patent US9085549B2, “Compounds for the treatment of neurodegenerative diseases” (ProteoTech Inc., priority 2011, dated 2015).
Read-outs that look alike come from different tables or passages of the source. Blank lines part the entries; values can stand above or below the compound they belong to.

Assays:
α-synuclein = α-synuclein (Homo sapiens (Human), UniProt P37840); assay: Circular dichroism spectroscopy: inhibition of α-synuclein β-sheet formation; type: biochemical; details: read-out: Max % Inhibition
Procedure: For this purpose, α-synuclein was obtained from rPeptide as a lyophilized salt in 1 mg aliquots. Buffer components and other solvents were obtained from Sigma as A.C.S. Reagent grade or higher. […] After 24 hours, reactions were diluted 20-fold in PBS and CD spectra for each reaction were acquired on a Jasco J-810 spectropolarimeter using a 0.1 cm path length cell. All spectra were recorded with a step size of 0.1 nm, a bandwidth of 1 nm, and an α-synuclein concentration of 0.05 mg/ml. The spectra were trimmed at the shortest wavelength that still provided a dynode voltage less than 600V. The trimmed spectra were then subjected to a data processing routine beginning with noise reduction by Fourier transform followed by subtraction of a blank spectrum (vehicle only without α-synuclein). These blank corrected spectra were then zeroed at 260 nm and the units converted from millidegrees to specific ellipticity.
These percent β-sheet values were then used to provide the respective relative % inhibition of β-sheet induced by the compounds at given molar ratio of test compound:α-synuclein.

α-synuclein fibrils [1] = target: T1, α-synuclein fibrils (Homo sapiens (Human), UniProt P37840); assay: biochemical; details: 48 h, read-out: Max % Decrease
α-synuclein fibrils [2] = target: T1, α-synuclein fibrils; assay: Thioflavin T fluorometry: disruption/disaggregation of pre-formed α-synuclein fibrils; type: biochemical; details: for Emax: 48 h, read-out: Max % Decrease
Procedure: The biological activity of the compounds provided herein as disruptors/inhibitors of Parkinson's disease α-synuclein fibrils was assessed by determining the efficacy of the compounds to cause a disassembly/disruption of pre-formed Parkinson's disease α-synuclein fibrils. In one study, Thioflavin T fluorometry was used to determine the effects of the compounds, and […]).
In one study, Thioflavin T fluorometry was used to determine the effects of the compounds on α-synuclein fibrils. In addition to test compounds, this experiment included a positive control compound and a negative control compound for reference.
For each compound, the % inhibition of Thioflavin T fluorescence (i.e. the decrease compared to control reactions containing α-synuclein alone) was plotted against the log of the concentration of the test compound (expressed as mole ratio relative to α-synuclein).

[3] = test system: BE-M17 human neuroblastoma cells stably transfected with A53T-mutant human α-synuclein; assay: Thioflavin S staining of rotenone-induced α-synuclein aggregates in cells; type: cell-based; details: for inhibition at 0.5 µM / inhibition at 2 µM / inhibition at 1 µM / inhibition at 5 µM: Homo sapiens, Neuroblastoma cell, read-out: Efficacy % Inhibition
[4] = target: human TauRD (Q244-E372 of Tau441) (Homo sapiens (Human), UniProt P10636); assay: Thioflavin S fluorometry: inhibition of tau protein fibril formation; type: biochemical; details: for IC50: read-out: ThioS (IC50)
Sequence of human TauRD (Q244-E372 of Tau441) (P10636 561-689): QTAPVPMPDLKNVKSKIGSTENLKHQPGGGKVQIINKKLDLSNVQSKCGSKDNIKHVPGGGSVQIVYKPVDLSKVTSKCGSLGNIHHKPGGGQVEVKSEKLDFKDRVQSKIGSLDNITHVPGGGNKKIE
Procedure: Methods Mol Biol, 2005. 299: p. 35-51]. […] (with shaking at 800-1000 rpm for day).
The Thio S fluorometry assay as a primary screening method to identify tau protein aggregation inhibitors from our small molecule library. Aggregated tau fibrils were prepared in the presence of equimolar ratios of TauRD and heparin (10 μM each) in 20 mM Na-phosphate buffer, pH7.4. The reaction mixture was incubated at 37° C. with shaking (800-1000 rpm) for 22-24 hr (or for 3 days). In the Thio S inhibition assays, test compounds at 0, 0.1, 1, 10 and 100 μM were added at time 0 into the reaction containing TauRD and heparin. The same reaction mixture (+/− increasing concentrations of compounds) but without TauRD were also set up in parallel to serve as background controls. For all test compounds background fluorescence readings were very low, usually <5% of those of the TauRD-containing wells. For each compound, the IC50 was calculated using Prism version 5 software (GraphPad Software) by nonlinear regression [(Log [inhibitor] vs. normalized response; variable slope)]. […] The Thio S screening results are summarized in Table 7 (in which the reactions were incubated for 22 hours).

TauRD = TauRD (Homo sapiens (Human), UniProt P10636); assay: Circular dichroism spectroscopy: tau protein β-sheet formation
Sequence of TauRD (P10636 561-689): as above
Procedure: CD spectroscopy was also performed to determine each compound's potency in inhibiting β-sheet secondary structure in TauRD under aggregation-prone conditions. The CD spectroscopy and Thio S assays were typically analyzed in parallel from the same sample preparation in order to correlate the results from two independent assays. CD spectra were taken from the samples containing +/− TauRD with increasing concentrations of compounds, and collected at 25° C. on a JASCO Model J-810 Spectropolarimeter. […] Since CD spectra reflect a total population of secondary structures (including random coil, β-sheet, and various intermediate conformers) of TauRD proteins under a given condition, the CD scores were established based on (1) the CD spectra derived from TauRD mixtures with different ratios of random coil/β-sheet; (2) time-dependent conformational changes of TauRD.

α-synuclein fibrils [5] = target: T1, α-synuclein fibrils
[6] = test system: A53T α-synuclein-expressing BE-M17 cells; assay: XTT assay: rotenone-induced cell death; type: cell-based, human
[7] = inhibition of β-sheet formation, 24 hours
[8] = Thioflavin T fluorescence, 2-day incubation
[9] = rotenone 0.5 μM, compound 0.5 μM
[10] = Homo sapiens, read-out: Max % Inhibition
[11] = TauRD and heparin 10 μM each, incubated for 22 hours
[12] = Homo sapiens; read-out: Max % Inhibition
[13] = Homo sapiens, read-out: % inhibition of cell death

- Emax (α-synuclein; [7]): 100%
- Emax (α-synuclein fibrils [1]): 57%
- Emax (α-synuclein fibrils [2]; [8]): 98%
SMILES: Oc1ccc(-c2nc3cc(O)c(O)cc3o2)cc1O [SA-54]
- inhibition at 0.5 µM [3, 9]: 80%
- inhibition at 2 µM ([3]; rotenone 0.5 μM, compound 2 μM): 83%
- inhibition at 1 µM ([3]; rotenone 2 μM, compound 1 μM): 56%

SMILES: Oc1ccc(-c2nnc(-c3cc(O)c(O)cc3Br)o2)cc1O [SA-55]
- ThioS (IC50, μM) [4]: no inhibition
- CD (TauRD): −

- Emax (α-synuclein; [7]): 100%
- % inhibition of Congo red binding (α-synuclein fibrils [5]; test compound:α-synuclein molar ratio of 5:1): 49%
- % inhibition of Congo red binding (α-synuclein fibrils [5]; test compound:α-synuclein molar ratio of 50:1): 66%
- Emax (α-synuclein fibrils [1]): 66%
- Emax (α-synuclein fibrils [2]; [8]): 100%
- % inhibition of Thioflavin T fluorescence (α-synuclein fibrils [2]; test compound:α-synuclein molar ratio of 1:1): 83%
- % inhibition of Thioflavin T fluorescence (α-synuclein fibrils [2]; test compound:α-synuclein molar ratios ≧5:1): 97-100%
SMILES: Oc1ccc(-c2nsc(-c3ccc(O)c(O)c3)n2)cc1O [SA-57]

SMILES: Oc1ccc(-c2cc(Br)c(-c3ccc(O)c(O)c3)s2)cc1O [SA-59]
- IC50 ([6]; Homo sapiens): 3.1 µM
- Emax [6, 10]: 63%
- Efficacy % Inhibition [3]: 67%
- inhibition at 1 µM [3]: 69%
- inhibition at 2 µM [3]: 76%
- inhibition at 5 µM [3]: 56%

SMILES: COc1ccc(-c2cc(-c3ccc(OC)c(OC)c3)c(-c3ccc(OC)c(OC)c3)s2)cc1OC [SA-60, 2,3,5-tri(3′,4′-dimethoxyphenyl)thiophene]
- inhibition of rotenone-induced cell death (in words) [6]: significant, dose-dependent inhibition
- IC50 ([6]; Homo sapiens): 12.5 µM
- Emax [6, 10]: 33%
- ThioS (IC50, μM) [4, 11]: no inhibition

- ThioS (IC50, μM) [4, 11]: no inhibition
SMILES: Oc1ccc(-c2ccc(Br)s2)cc1O [SA-62]

- IC50 [4, 11]: 10.1 ± 0.56 µM
- CD (TauRD; semi-quantitative CD score, aggregated TauRD): +
SMILES: Oc1ccc(-c2ccc(-c3cc(O)c(O)c(O)c3)s2)cc1O [SA-63, 5-(5-(3,4-dihydroxyphenyl)thiophen-2-yl)benzene-1,2,3-triol]

- Emax (α-synuclein; [7]): 100%
- Emax (α-synuclein fibrils [1]): 85%
- IC50 [4, 11]: 17.6 µM
- Emax (α-synuclein fibrils [2]; [8]): 100%
SMILES: Oc1ccc(-c2cnc(-c3ccc(O)c(O)c3)s2)cc1O [SA-64]
- IC50 ([6]; Homo sapiens; read-out: IC50): 2.6 µM
- Emax [6, 12]: 100%

- Emax (α-synuclein; [7]): 100%
- Emax (α-synuclein fibrils [1]): 25%
- Emax (α-synuclein fibrils [2]; [8]): 76%
SMILES: Oc1ccc(-c2nnc(-c3ccc(O)c(O)c3)o2)cc1O [SA-67]
- IC50 ([6]; Homo sapiens; read-out: IC50): 8.5 µM
- Emax [6, 12]: 44%
- inhibition at 0.5 µM [3, 9]: 75%
- inhibition at 1 µM ([3]; rotenone 0.5 μM, compound 1 μM): 48%
- inhibition at 2 µM ([3]; rotenone 0.5 μM, compound 2 μM): 92%

- Emax (α-synuclein; 24 h): 100%
- Emax (α-synuclein fibrils [2]): 100%
SMILES: Oc1ccc(-c2cn(-c3ccc(O)c(O)c3)nn2)cc1O [SA-68]
- IC50 ([6]; Homo sapiens; read-out: IC50): 24 µM
- Emax [6, 12]: 61%
- inhibition at 1 µM ([3]; rotenone 0.5 μM, compound 1 μM): 69%
- inhibition at 5 µM ([3]; rotenone 0.5 μM, compound 5 μM): 73%
- inhibition at 5 µM ([3]; rotenone 2 μM, compound 5 μM): 44%

SMILES: Oc1ccc(-c2cnc(-c3ccc(O)c(O)c3)o2)cc1O [SA-70]
- Emax (α-synuclein; 24 h): 92%
- IC50 ([6]; Homo sapiens): 5.6 µM
- Emax [6, 10]: 78%
- Emax (α-synuclein fibrils [1]): 88%
- Emax (α-synuclein fibrils [2]): 100%

SMILES: Oc1ccc(-c2cnco2)cc1O [SA-73]
- inhibition of rotenone-induced cell death (in words) ([6]; 500 nM rotenone): significant, dose-dependent inhibition
- Max % Inhibition ([6]; inhibition of cell death, 500 nM rotenone): 77%
- IC50 ([6]; inhibition of cell death, 500 nM rotenone; read-out: IC50): 35 to 75 µM
- Max % Decrease (α-synuclein fibrils [5]; Congo red binding, 2-day incubation): 35%
- EC50 (mole ratio) (α-synuclein fibrils [5]; Congo red binding, moles of test compound per mole of α-synuclein, 2 days): 1.1 mole ratio
- Max % Decrease (α-synuclein fibrils [2]; [8]): 100%
- EC50 (mole ratio) (α-synuclein fibrils [2]; Thioflavin T fluorescence, moles of test compound per mole of α-synuclein, 6.9 μM pre-formed fibrils, 2 days): 0.52 mole ratio
- disruption/disassembly of preformed α-synuclein fibrils (in words) (α-synuclein fibrils [2]; molar ratios 50:1 to 0.01:1): dose-dependent and extensive disruption/disassembly

- Emax (α-synuclein; [7]): 91%
- Emax (α-synuclein fibrils [1]): 62%
- Emax (α-synuclein fibrils [2]; [8]): 100%
SMILES: Oc1ccc(Cc2cc(O)c(O)cc2I)cc1O [SA-93]
- IC50 ([6]; Homo sapiens; read-out: IC50): 19.8 µM
- Emax [6, 12]: 100%
- inhibition at 2 µM ([3]; rotenone 2 μM, compound 2 μM): 45%

SMILES: O=C(/C=C/c1ccc(O)c(O)c1)c1ccc(O)c(O)c1 [SA-94]
- Emax (α-synuclein; 24 h): 95%
- IC50 ([6]; Homo sapiens): 2.3 µM
- inhibition at 3.5 µM [6, 13]: 35%
- inhibition at 15 µM [6, 13]: 58%
- Emax [6, 10]: 58%
- Emax (α-synuclein fibrils [1]): 65%
- Emax (α-synuclein fibrils [2]): 100%
- inhibition at 0.5 µM [3]: 70%
- inhibition at 1 µM [3]: 63%
- inhibition at 2 µM [3]: 85%

- Emax (α-synuclein; [7]): 97%
- Emax (α-synuclein fibrils [1]): 64%
- Emax (α-synuclein fibrils [2]; [8]): 100%
SMILES: O=C(/C=C/c1cc(O)c(O)cc1Br)c1ccc(O)c(O)c1 [SA-95]
- IC50 ([6]; Homo sapiens; read-out: IC50): 3.8 µM
- Emax [6, 12]: 63%
- inhibition at 0.5 µM [3, 9]: 73%
- inhibition at 1 µM ([3]; rotenone 0.5 μM, compound 1 μM): 98%
- inhibition at 2 µM ([3]; rotenone 0.5 μM, compound 2 μM): 90%
- inhibition at 0.5 µM ([3]; rotenone 2 μM, compound 0.5 μM): 95%

SMILES: O=C(/C=C/c1ccc(O)c(O)c1)c1cc(O)c(O)cc1Br [SA-96]
- Emax (α-synuclein; 24 h): 100%
- IC50 ([6]; Homo sapiens): 4.3 µM
- Emax [6, 10]: 61%
- Emax (α-synuclein fibrils [1]): 72%
- Emax (α-synuclein fibrils [2]): 100%
- inhibition at 0.5 µM [3]: 73%
- inhibition at 1 µM [3]: 82%
- inhibition at 2 µM [3]: 81%

- Emax (α-synuclein; [7]): 100%
- Emax (α-synuclein fibrils [1]): 40%
- Emax (α-synuclein fibrils [2]; [8]): 99%
SMILES: Oc1ccc(Cc2cc(O)c(O)cc2O)cc1O [SA-97]
- IC50 ([6]; Homo sapiens; read-out: IC50): 39 µM
- Emax [6, 12]: 42%

SMILES: CC(=O)N1N=C(c2ccc(O)c(O)c2)CC1c1ccc(O)c(O)c1 (centres unmarked) [SA-98]
- Emax (α-synuclein; 24 h): 100%
- IC50 ([6]; Homo sapiens): 48 µM
- Emax [6, 10]: 56%
- Emax (α-synuclein fibrils [1]): 44%
- Emax (α-synuclein fibrils [2]): 100%
- inhibition at 0.5 µM [3]: 74%
- inhibition at 1 µM [3]: 76%

- Emax (α-synuclein; [7]): 98%
- Emax (α-synuclein fibrils [1]): 54%
- Emax (α-synuclein fibrils [2]; [8]): 100%
SMILES: O=[N+]([O-])c1cc(-c2ccc(O)c(O)c2)ccc1-c1ccc(O)c(O)c1 [SA-99]
